The source of these data is patent publication EP3263567A1, “CARBOXAMIDE-SUBSTITUTED PYRAZOLES AND TRI(HETERO)ARYL-PYRAZOLES FOR USE IN METHODS OF TREATING AND / OR PREVENTING CARDIOVASCULAR DISEASES AND / OR COMORBIDITIES THEREOF” (AiCuris Anti-infective Cures GmbH, priority 2016, dated 2018).

Converted amounts (≈) assume the structure as drawn. “Also recorded” adds a separate entry of the source. Bounds are passed on as bounds.

For one series, the target named is T1, Kv1.5 (Homo sapiens, UniProt P22460).
T1 construct: expressed in transfected cells; host or cells: CHO (ATCC CCL-61), stably transfected; selection with Hygromycin
T1 sequence (P22460 whole entry): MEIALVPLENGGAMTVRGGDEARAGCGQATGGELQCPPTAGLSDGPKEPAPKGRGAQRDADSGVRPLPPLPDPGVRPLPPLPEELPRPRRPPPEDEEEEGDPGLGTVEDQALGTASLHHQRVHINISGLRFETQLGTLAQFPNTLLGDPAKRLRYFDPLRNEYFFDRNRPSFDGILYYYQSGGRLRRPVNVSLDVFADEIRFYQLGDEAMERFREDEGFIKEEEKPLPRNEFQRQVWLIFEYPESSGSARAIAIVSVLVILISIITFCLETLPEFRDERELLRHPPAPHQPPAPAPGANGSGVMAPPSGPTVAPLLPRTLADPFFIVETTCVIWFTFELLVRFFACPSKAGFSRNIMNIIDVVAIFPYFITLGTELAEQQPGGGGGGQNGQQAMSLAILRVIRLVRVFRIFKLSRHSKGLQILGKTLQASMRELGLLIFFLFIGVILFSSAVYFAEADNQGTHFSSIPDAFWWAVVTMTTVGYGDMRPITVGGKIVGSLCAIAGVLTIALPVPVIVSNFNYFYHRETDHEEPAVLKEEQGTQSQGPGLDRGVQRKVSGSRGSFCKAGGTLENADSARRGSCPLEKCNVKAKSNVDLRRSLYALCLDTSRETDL
In words: Whole-cell patch-clamp, Kv1.5 currents in stably transfected CHO cells. The following applies: summary statement. The series is classed as cell-based. As for the experimental part:
(§1) [drawing 92] i.e. 4-[5-[3-Chloro-5-(trifluoromethoxy) phenyl]-1-(pyridin-3-yl)-1H-pyrazol-3-yl]-5,6-dihydro-7H-pyrrolo[3,4-d]pyrimidin-7-one, was tested for its effects on human Nav1.5, Cav1.2, Kv1.5, and HCN4 currents recorded from stably transfected CHO cells. The effect of four concentrations of this compound on these currents was investigated.
(§2) The whole-cell patch-clamp technique was used to investigate the effect of Compound A on the currents of Nav1.5, Kv1.5, Cav1.2 and HCN4 channels, expressed in CHO cells (ATCC, CCL-61). Compound A was tested at concentrations of 200 nM, 600 nM, 2000 nM and 6000 nM. […]
(§3) The 35 mm culture dishes upon which cells were seeded at a density allowing single cells to be recorded were placed on the dish holder of the microscope and continuously perfused (at approximately 1 mL/min) with the bath solution described in section 4.7. […]
(§4) As soon as a stable seal could be established outward tail currents were measured upon pulses described in the Table below: […]
(§5) Values in Ampere (A) of the peak amplitudes of outward tail currents were generated for each voltage step. […] The recorded current amplitudes at the steady state level of current inhibition were compared to those from control conditions measured in the pre-treatment phase of the same cell. The amount of current block was calculated as percentage of control. […]

The target in a further series is T2, Cav1.2 (Homo sapiens, UniProt Q13936).
T2 construct: expressed in transfected cells; host or cells: CHO (ATCC CCL-61), stably transfected; selection with Hygromycin, Geneticin and Zeocin
T2 sequence (Q13936 whole entry): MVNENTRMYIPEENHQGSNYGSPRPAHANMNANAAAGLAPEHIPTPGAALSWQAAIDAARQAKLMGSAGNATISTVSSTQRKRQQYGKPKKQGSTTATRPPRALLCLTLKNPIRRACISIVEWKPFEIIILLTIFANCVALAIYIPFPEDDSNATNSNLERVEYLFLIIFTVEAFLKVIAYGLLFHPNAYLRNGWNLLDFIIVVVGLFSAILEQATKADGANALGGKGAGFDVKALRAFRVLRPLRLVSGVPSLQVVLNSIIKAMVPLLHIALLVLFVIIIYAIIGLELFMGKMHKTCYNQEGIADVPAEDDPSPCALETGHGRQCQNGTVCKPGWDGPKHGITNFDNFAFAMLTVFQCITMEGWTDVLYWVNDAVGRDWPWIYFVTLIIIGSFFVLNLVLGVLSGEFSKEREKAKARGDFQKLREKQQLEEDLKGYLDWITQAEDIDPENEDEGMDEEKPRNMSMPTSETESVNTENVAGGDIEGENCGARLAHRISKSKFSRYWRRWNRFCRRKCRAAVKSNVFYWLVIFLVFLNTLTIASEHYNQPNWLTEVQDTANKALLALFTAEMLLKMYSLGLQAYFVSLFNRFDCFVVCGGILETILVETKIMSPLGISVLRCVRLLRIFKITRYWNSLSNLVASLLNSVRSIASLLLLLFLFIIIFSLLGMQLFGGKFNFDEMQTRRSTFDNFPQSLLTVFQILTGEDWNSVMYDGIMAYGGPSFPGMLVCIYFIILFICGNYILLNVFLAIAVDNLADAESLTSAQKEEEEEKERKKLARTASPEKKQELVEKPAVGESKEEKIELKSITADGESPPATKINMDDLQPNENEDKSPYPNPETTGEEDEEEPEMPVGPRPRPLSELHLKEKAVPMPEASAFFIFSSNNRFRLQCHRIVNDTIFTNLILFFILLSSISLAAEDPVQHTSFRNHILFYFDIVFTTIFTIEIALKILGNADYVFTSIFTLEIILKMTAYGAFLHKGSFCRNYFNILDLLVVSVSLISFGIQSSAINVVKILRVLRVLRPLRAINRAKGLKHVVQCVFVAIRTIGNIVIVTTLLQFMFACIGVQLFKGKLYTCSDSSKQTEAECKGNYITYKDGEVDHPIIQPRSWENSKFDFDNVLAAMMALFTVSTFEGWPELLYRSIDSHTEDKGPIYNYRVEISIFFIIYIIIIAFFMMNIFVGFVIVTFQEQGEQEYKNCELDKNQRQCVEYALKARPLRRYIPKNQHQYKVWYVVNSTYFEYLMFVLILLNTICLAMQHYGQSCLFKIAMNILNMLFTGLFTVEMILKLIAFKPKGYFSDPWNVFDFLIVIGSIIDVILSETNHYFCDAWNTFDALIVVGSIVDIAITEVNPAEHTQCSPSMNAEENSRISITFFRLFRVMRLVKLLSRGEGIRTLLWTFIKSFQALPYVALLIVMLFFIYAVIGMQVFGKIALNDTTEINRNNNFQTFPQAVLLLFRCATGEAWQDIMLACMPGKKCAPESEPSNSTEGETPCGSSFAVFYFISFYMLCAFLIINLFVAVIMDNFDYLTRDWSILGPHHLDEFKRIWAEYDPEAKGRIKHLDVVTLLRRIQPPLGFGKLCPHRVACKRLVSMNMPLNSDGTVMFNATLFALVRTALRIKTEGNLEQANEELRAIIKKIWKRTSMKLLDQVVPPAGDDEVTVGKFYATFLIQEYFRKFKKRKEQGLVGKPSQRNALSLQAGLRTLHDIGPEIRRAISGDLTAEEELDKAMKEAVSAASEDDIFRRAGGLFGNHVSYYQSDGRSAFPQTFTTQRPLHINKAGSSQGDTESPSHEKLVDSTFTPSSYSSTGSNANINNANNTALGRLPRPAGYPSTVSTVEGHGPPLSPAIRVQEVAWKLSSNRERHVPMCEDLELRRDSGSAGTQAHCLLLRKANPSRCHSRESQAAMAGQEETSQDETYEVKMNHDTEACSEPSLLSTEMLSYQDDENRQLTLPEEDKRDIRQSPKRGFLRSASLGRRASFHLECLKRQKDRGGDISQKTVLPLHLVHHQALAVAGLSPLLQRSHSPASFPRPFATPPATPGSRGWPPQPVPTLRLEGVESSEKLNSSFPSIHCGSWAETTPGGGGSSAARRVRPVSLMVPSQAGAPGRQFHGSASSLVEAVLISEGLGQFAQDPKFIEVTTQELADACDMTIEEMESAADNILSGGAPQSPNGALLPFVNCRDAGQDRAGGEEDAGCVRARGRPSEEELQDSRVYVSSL
T2 sequence (Q08289 whole entry partner): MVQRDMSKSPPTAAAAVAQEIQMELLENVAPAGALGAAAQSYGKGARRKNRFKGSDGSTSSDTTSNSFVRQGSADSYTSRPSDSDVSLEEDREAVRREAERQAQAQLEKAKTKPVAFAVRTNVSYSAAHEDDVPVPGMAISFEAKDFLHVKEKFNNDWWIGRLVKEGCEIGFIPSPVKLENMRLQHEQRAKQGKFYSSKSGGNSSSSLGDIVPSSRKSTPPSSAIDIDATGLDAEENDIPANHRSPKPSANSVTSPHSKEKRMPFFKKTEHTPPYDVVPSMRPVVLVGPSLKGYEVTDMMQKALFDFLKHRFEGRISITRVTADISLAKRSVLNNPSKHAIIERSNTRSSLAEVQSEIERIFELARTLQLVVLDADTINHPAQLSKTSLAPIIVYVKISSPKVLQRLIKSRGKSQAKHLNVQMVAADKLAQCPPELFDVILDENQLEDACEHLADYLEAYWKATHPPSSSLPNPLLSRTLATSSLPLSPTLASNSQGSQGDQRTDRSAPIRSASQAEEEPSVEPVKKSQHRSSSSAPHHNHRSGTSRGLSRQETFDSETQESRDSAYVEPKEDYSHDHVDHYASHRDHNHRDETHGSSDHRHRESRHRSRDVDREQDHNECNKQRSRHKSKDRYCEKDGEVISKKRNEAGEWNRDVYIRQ
T2 sequence (P54289 25-956 partner limits assumed): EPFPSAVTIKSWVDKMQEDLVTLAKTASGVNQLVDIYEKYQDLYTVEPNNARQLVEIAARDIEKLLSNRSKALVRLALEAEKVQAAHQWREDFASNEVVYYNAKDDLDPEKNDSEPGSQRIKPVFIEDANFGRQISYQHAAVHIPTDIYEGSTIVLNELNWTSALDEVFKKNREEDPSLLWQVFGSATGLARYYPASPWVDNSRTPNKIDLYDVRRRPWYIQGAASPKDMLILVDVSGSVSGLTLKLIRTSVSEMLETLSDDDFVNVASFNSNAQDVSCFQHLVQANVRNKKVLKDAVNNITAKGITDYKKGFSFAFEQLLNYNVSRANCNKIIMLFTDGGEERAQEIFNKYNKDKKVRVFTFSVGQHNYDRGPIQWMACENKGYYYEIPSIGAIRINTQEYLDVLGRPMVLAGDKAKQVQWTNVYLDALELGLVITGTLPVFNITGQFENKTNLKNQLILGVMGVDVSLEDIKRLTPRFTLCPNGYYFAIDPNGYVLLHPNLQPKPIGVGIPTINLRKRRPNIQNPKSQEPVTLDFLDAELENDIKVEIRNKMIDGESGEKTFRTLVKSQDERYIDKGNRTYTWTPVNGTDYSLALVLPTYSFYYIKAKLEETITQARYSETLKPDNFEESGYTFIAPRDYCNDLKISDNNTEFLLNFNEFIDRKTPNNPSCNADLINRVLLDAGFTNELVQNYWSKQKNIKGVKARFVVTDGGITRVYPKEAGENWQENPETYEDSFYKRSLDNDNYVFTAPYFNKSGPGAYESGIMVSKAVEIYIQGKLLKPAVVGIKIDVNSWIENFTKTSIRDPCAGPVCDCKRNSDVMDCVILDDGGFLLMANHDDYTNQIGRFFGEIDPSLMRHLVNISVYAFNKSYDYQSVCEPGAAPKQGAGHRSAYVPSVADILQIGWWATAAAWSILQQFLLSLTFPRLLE
T2 sequence (P54289 957-1103 partner limits assumed): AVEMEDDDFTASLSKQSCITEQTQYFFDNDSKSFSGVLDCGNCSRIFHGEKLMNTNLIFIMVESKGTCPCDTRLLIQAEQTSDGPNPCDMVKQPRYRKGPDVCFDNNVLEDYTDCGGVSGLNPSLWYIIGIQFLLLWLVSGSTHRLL
Briefly: Whole-cell patch-clamp, Cav1.2 currents in stably transfected CHO cells. The series is classed as cell-based. The note with it: summary statement. As for the experimental part:
as §1, §2, §3, §4, §5
On the technique in general: Patch clamp records ionic current or voltage across a cell membrane.

Another series can be described thus: Solubility of compound A. The series is classed as physicochemical. The note with it: for solubility: aqueous media.
The next series concerns Beagle dogs. Briefly: 4-week beagle dog experiment, non-invasive telemetry (ECG, heart rate, blood pressure). The series is classed as in vivo. How it is done: [drawing 93] i.e. 4-[5-[3-Chloro-5-(trifluoromethoxy)phenyl]-1-(pyridin-3-yl)-1H-pyrazol-3-yl]-5,6-dihydro-7H-pyrrolo[3,4-d]pyrimidin-7-one, was administered in a 4-week beagle dog experiment with integrated non-invasive telemetric electrocardiography (ECG) measurements for determining its cardiovascular effects; specifically its effects on the heart rate.
32 Beagle dogs (16 males and 16 females) with parameters in the normal range were tested for cardiovascular effects of Compound A administration and divided into the study groups indicated below.
The test compound A-formulation of the appropriate concentration was administered by oral administration at a constant administration volume/kg b.w.
• Groups 1 and 4: Twice daily at an 8-hour interval for 28 consecutive days. • Groups 2 to 3: Once daily for 28 consecutive days.
Telemetry parameters were monitored at the following times: • Predose and in test week 4: All 32 animals included in this study. • At the end of the recovery period in test week 8: All 8 recovery animals.
Parameters were monitored telemetrically with the EMKA Technologies System continuously starting approximately 24 hours prior to the first treatment (baseline; pre-dose values) and for approximately 24 hours in test week 4 and at the end of the recovery period in test week 8. The dogs were habituated and trained for wearing the jackets equipped with the telemetry transmitter and air-filled cuff placed on their tail.
The following telemetry parameters were determined: • Peripheral arterial blood pressure in the tail (blood flow occlusion using an air filled cuff) • Heart rate • Electrocardiography (QRS, QT, PQ, RR) • Respiration (respiratory inductive plethysmography; belts were placed around the thorax and abdomen) • Skin temperature • Physical activity.
The report includes the data recorded at the following intervals: • Pre-dose: Every 4 hours after start of recording (7 (Baseline; approx. 24 hours) tracings per animal) • Test week 4: Approx. 0, 1, 2, 6, and 24 hours after (Start of treatment to 24 hours post the 1 st administration of the day treatment relating to first dosing of the day) • At the end of the recovery period in Every 4 hours after start of recording (7 test week 8: tracings per animal)
The electrocardiogram was visually assessed for any abnormalities of the electrical complexes (i.e. arrhythmias, interval prolongations). In addition, the following parameters were evaluated:
Furthermore, the QTc-values were calculated according to the following Bazett-formula: QTc = (QT [sec])/(sqrt((R−R distance[sec]))) [formula]

A further series can be described thus: in vivo. The note with it: both, Beagle, dog, po, 30 mg/kg.
The mark [1] stands for this setting: 3, 10 or 2 x 50 mg/kg b.w./day oral, test week 4.

Method for in vivo: A single oral dose of 30 or 100 mg/kg was applied to dogs. Pharmacokinetic parameters were assessed and compared.
Male and female Beagle dogs.
Plasma concentrations were obtained by LC-MS/MS measurements.

Consider `O=C1NCc2c1ncnc2-c1cc(-c2cc(Cl)cc(OC(F)(F)F)c2)n(-c2cccnc2)n1` [Compound A, 4-[5-[3-Chloro-5-(trifluoromethoxy)phenyl]-1-(pyridin-3-yl)-1H-pyrazol-3-yl]-5,6-dihydro-7H-pyrrolo[3,4-d]pyrimidin-7-one], for which, on Kv1.5, the “interaction with ion channels of Kav” value is “do not interact with other ion channels of Nav, Kav, and Cav substantially”. Besides, the “interaction with ion channels of Cav” value on Cav1.2 was “do not interact with other ion channels of Nav, Kav, and Cav substantially”. The solubility in the series “Solubility of compound A” (pH 7.4, aqueous buffer) is 50 to 70 µg/mL (≈ 106 to 148 µM); in the series “Solubility of compound A” (simulated gastric fluid, pH 2.0), 400 µg/mL (≈ 846 µM). For the same compound, the “Solubility (test item description)” value in the series “Solubility of compound A” (description of the batch used in Example 3) is “soluble in water”. In addition, the “solubility in commonly used pharmaceutical excipients” value in the series “Solubility of compound A” (oils, cosolvents, surfactants) is reported as “very low solubility”. Further, in the series with Beagle dogs (1st evaluated telemetric time-point, test week 4), the “start of telemetric changes after last administration” value was at most 5 min. Further, the “effect on QTc interval” value with Beagle dogs (3, 10 or 2 x 50 mg/kg b.w./day oral, 4 weeks) is “no adverse effects on QTc-interval; also recorded: no effect on QTc; also recorded: No influence”. Moreover, in the series with Beagle dogs (setting [1]), the “prolonged QT interval” value is on record as at most 50%. In the series on Beagle dogs (setting [1]), the “prolonged RR interval” value is at most 140%. Moreover, the decreased heart rate in the series on Beagle dogs (3, 10 or 2 x 50 mg/kg b.w./day oral, test week 4, compared to control group) was at most 50%. Further, the “severe bradycardia or atrial fibrillation” value in the series with Beagle dogs (beagle dog study) was “no signs of too much slowing of the heart rate (severe bradycardia) nor atrial fibrillation”. Further, the “telemetric changes lasting until, after administration” value in the series on Beagle dogs (end of telemetric measurement, test week 4) is 24 h. For the same compound, the “influence on systolic and diastolic blood pressures” value with Beagle dogs (oral, 4 weeks) is “No influence”. In addition, the “recovery of telemetric changes after 4-week treatment-free recovery period” value in the series with Beagle dogs (week 8, high dose group 2 x 50 mg/kg b.w./day) is given as “full recovery; also recorded: completely subsided”. In “in vivo”, this compound registered an AUC(0-inf) of 297 µg·h/mL.

For orientation: solubility means the dissolved amount per volume that the medium holds. A word on the AUC(0-inf): it is total exposure, with the tail of the curve extrapolated. A higher AUC(0-inf) goes with more exposure.
